Assay results: patent US20140135270A1, “MACROCYCLIC COMPOUNDS FOR INHIBITION OF INHIBITORS OF APOPTOSIS” (Ensemble Therapeutics Corp., priority 2012, published 2014)
pIC50: −log10 of the molar value.

Assays:
His-BIR3 (241-356, XIAP) = target: T1, His-BIR3 (241-356, XIAP) (Homo sapiens, UniProt P98170); test: XIAP-BIR3/SMAC Homogeneous Time Resolved Fluorescence (HTRF) Assay; type: binding; conditions: fluorescein labeled SMAC peptide
T1 construct: additions of His-BIR3 (241-356, XIAP), fluorescein labeled SMAC peptide

[1] = target: T2, His-BIR2-3 (125-356, C202A/C213G, XIAP) (Homo sapiens, UniProt P98170, C202A/C213G); test: XIAP-BIR2-3 Dimeric SMAC Peptide Homogeneous Time Resolved Fluorescence (HTRF) Assay; type: binding; conditions: fluorescein labeled dimeric SMAC peptide
T2 construct: additions of His-BIR2-3 (125-356, C202A/C213G, XIAP), fluorescein labeled dimeric SMAC peptide
T2 sequence (P98170 125-356 C202A/C213G): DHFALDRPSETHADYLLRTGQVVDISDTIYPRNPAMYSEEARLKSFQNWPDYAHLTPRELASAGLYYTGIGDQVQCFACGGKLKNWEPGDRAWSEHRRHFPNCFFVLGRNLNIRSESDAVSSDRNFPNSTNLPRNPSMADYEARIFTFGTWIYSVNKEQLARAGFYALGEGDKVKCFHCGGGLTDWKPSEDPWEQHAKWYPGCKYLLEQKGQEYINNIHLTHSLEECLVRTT

T1 sequence (P98170 241-356): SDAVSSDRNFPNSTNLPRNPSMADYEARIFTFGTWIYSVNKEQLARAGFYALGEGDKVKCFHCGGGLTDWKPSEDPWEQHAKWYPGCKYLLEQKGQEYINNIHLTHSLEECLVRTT

| SMILES | pIC50 (His-BIR3 (241-356, XIAP)) | pIC50 [1] |
| --- | --- | --- |
| CC[C@H](NC(=O)[C@H](C)NC)C(=O)N1C[C@@H]2C[C@H]1C(=O)N1Cc3ccccc3C[C@H]1C(=O)N[C@H](C(=O)O)Cc1ccc(cc1)C(=O)N[C@H]1C[C@@H](C(=O)N[C@@H](Cc3ccc4ccccc4c3)C(=O)N[C@H](C(=O)O)Cc3ccc(cc3)OC/C=C/CO2)N(C(=O)[C@@H](NC(=O)[C@H](C)NC)C(C)(C)C)C1 [Example 50] | 7.10 | 7.25 |
| CN[C@@H](C)C(=O)N[C@H](C(=O)N1C[C@@H]2C[C@H]1C(=O)N[C@@H](C)C(=O)N[C@H](C(=O)O)Cc1ccc(cc1)C(=O)N[C@H]1C[C@@H](C(=O)N[C@@H](Cc3ccc4ccccc4c3)C(=O)N[C@H](C(=O)O)Cc3ccc(cc3)OC/C=C/CO2)N(C(=O)[C@@H](NC(=O)[C@H](C)NC)C(C)(C)C)C1)C(C)(C)C [Example 44] | 6.95 | 8.46 |
| CN[C@@H](C)C(=O)N[C@@H](Cc1ccccc1)C(=O)N1C[C@@H]2C[C@H]1C(=O)N[C@@H](Cc1ccc3ccccc3c1)C(=O)N[C@H](C(=O)O)Cc1ccc(cc1)C(=O)N[C@H]1C[C@@H](C(=O)N[C@@H](Cc3ccc4ccccc4c3)C(=O)N[C@H](C(=O)O)Cc3ccc(cc3)OC/C=C/CO2)N(C(=O)[C@@H](NC(=O)[C@H](C)NC)C(C)(C)C)C1 [Example 70] | 8.03 | 8.70 |
| CC[C@H](NC(=O)[C@H](C)NC)C(=O)N1C[C@@H]2C[C@H]1C(=O)N[C@@H](Cc1c[nH]c3ccccc13)C(=O)N[C@H](C(=O)O)Cc1ccc(cc1)C(=O)N[C@H]1C[C@@H](C(=O)N[C@@H](Cc3ccc4ccccc4c3)C(=O)N[C@H](C(=O)O)Cc3ccc(cc3)OC/C=C/CO2)N(C(=O)[C@@H](NC(=O)[C@H](C)NC)C(C)(C)C)C1 [Example 47] | 7.38 | 8.20 |
| CN[C@@H](C)C(=O)N[C@H](C(=O)N1C[C@@H]2C[C@H]1C(=O)N[C@@H](Cc1ccc3ccccc3c1)C(=O)N[C@H](C(=O)O)Cc1ccc(cc1)OCc1cn(nn1)[C@H]1C[C@@H](C(=O)N[C@@H](Cc3ccc4ccccc4c3)C(=O)N[C@H](C(=O)NS(C)(=O)=O)Cc3ccc(cc3)OCCCCO2)N(C(=O)[C@@H](NC(=O)[C@H](C)NC)C(C)(C)C)C1)C(C)(C)C [Example 124] | 7.71 | 7.87 |
| CC[C@H](NC(=O)[C@H](C)NC)C(=O)N1C[C@@H]2C[C@H]1C(=O)N[C@@H](Cc1ccc(-c3ccccc3)cc1)C(=O)N[C@H](C(=O)O)Cc1ccc(cc1)C(=O)N[C@H]1C[C@@H](C(=O)N[C@@H](Cc3ccc4ccccc4c3)C(=O)N[C@H](C(=O)O)Cc3ccc(cc3)OC/C=C/CO2)N(C(=O)[C@@H](NC(=O)[C@H](C)NC)C(C)(C)C)C1 [Example 49] | 7.79 | 8.32 |
| CN[C@@H](C)C(=O)N[C@H](C(=O)N[C@H]1C/C=C/CC[C@@H](C(=O)O)NC(=O)[C@H](Cc2ccccc2)NC(=O)[C@@H]2CN(CCNC(=O)CC[C@@H](C(=O)O)NC(=O)[C@H](Cc3ccccc3)NC1=O)CCN2C(=O)[C@@H](NC(=O)[C@H](C)NC)C(C)C)C(C)C [Example 81] | 7.59 | 8.96 |
| CN[C@@H](C)C(=O)N[C@H](C(=O)N1C[C@@H]2C[C@H]1C(=O)N[C@@H](Cc1ccc3ccccc3c1)C(=O)N[C@H](C(=O)O)Cc1ccc(cc1)CCCCO[C@H]1C[C@@H](C(=O)N[C@@H](Cc3ccc4ccccc4c3)C(=O)N[C@H](C(=O)NS(=O)(=O)C3CC3)Cc3ccc(cc3)OCc3cn2nn3)N(C(=O)[C@@H](NC(=O)[C@H](C)NC)C(C)(C)C)C1)C(C)(C)C [Example 127] | 8.12 | 8.15 |
| CC(C)[C@H](NC(=O)[C@H](C)N(C)C(=O)OC(C)(C)C)C(=O)N[C@H]1C/C=C/CC[C@@H](C(=O)O)NC(=O)[C@H](Cc2ccccc2)NC(=O)[C@@H]2CN(CCNC(=O)CC[C@@H](C(=O)OC(C)(C)C)NC(=O)[C@H](Cc3ccccc3)NC1=O)CCN2C(=O)[C@@H](NC(=O)[C@H](C)N(C)C(=O)OC(C)(C)C)C(C)C [Example 82] | 5.96 | 5.68 |
| CN[C@@H](C)C(=O)N[C@@H](CC(N)=O)C(=O)N1C[C@@H]2C[C@H]1C(=O)N[C@@H](Cc1ccc3ccccc3c1)C(=O)N[C@H](C(=O)O)Cc1ccc(cc1)C(=O)N[C@H]1C[C@@H](C(=O)N[C@@H](Cc3ccc4ccccc4c3)C(=O)N[C@H](C(=O)O)Cc3ccc(cc3)OC/C=C/CO2)N(C(=O)[C@@H](NC(=O)[C@H](C)NC)C(C)(C)C)C1 [Example 72] | 7.31 | 8.03 |
| CN[C@@H](C)C(=O)N[C@H](C(=O)N1C[C@@H]2C[C@H]1C(=O)N[C@@H](Cc1ccc3ccccc3c1)C(=O)N[C@H](C(=O)O)Cc1ccc(cc1)OC/C=C/CO[C@H]1C[C@@H](C(=O)N[C@@H](Cc3ccc4ccccc4c3)C(=O)N[C@H](C(=O)NS(=O)(=O)c3ccccn3)Cc3ccc(cc3)OCc3cn2nn3)N(C(=O)[C@@H](NC(=O)[C@H](C)NC)C(C)(C)C)C1)C(C)(C)C [Example 118] | 8.20 | 8.74 |

Results, then the compound that gave them:

| pIC50 (His-BIR3 (241-356, XIAP)) | pIC50 [1] | SMILES |
| --- | --- | --- |
| 8.34 | 8.38 | CN[C@@H](C)C(=O)N[C@H](C(=O)N1C[C@@H]2C[C@H]1C(=O)NC(Cc1ccc3ccccc3c1)C(=O)N[C@H](C(=O)NS(=O)(=O)C1CC1)Cc1ccc(cc1)OCCCC[C@H]1C[C@@H](C(=O)N[C@@H](Cc3ccc4ccccc4c3)C(=O)N[C@H](C(=O)NS(=O)(=O)C3CC3)Cc3ccc(cc3)OCc3cn2nn3)N(C(=O)[C@@H](NC(=O)[C@H](C)NC)C(C)(C)C)C1)C(C)(C)C (stereo partly drawn) [Example 100] |
| 6.70 | 7.92 | CN[C@@H](C)C(=O)N[C@H](C(=O)N1C[C@@H]2C[C@H]1C(=O)N[C@@H](Cc1ccc3ccccc3c1)C(=O)N[C@H](C(=O)O)CCC(=O)N[C@H]1C[C@@H](C(=O)N[C@@H](Cc3ccc4ccccc4c3)C(=O)N[C@H](C(=O)O)Cc3ccc(cc3)OC/C=C/CO2)N(C(=O)[C@@H](NC(=O)[C@H](C)NC)C(C)(C)C)C1)[C@H](C)O [Example 57] |
| 8.00 | 7.46 | CN[C@@H](C)C(=O)N[C@H](C(=O)N1C[C@@H]2C[C@H]1C(=O)N[C@@H](Cc1ccc3ccccc3c1)C(=O)N[C@H](C(=O)O)Cc1ccc(cc1)OC/C=C/C[C@H]1C[C@@H](C(=O)N[C@@H](Cc3ccc4ccccc4c3)C(=O)N[C@H](C(=O)NS(=O)(=O)C3CC3)Cc3ccc(cc3)OCc3cnnn32)N(C(=O)[C@@H](NC(=O)[C@H](C)NC)C(C)(C)C)C1)C(C)(C)C [Example 102] |
| 8.26 | 8.48 | CN[C@@H](C)C(=O)N[C@H](C(=O)N1C[C@@H]2C[C@H]1C(=O)N[C@@H](Cc1ccc3ccccc3c1)C(=O)N[C@H](C(=O)O)Cc1ccc(cc1)OCc1cn(nn1)[C@H]1C[C@@H](C(=O)N[C@@H](Cc3ccc4ccccc4c3)C(=O)N[C@H](c3nnn[nH]3)Cc3ccc(cc3)OCCCCO2)N(C(=O)[C@@H](NC(=O)[C@H](C)NC)C(C)(C)C)C1)C(C)(C)C [Example 128] |
| 7.45 | 7.77 | CN[C@@H](C)C(=O)N[C@H](C(=O)N1CC[C@@H]2OC/C=C/CC[C@@H](C(=O)O)NC(=O)[C@H](Cc3ccc4ccccc4c3)NC(=O)[C@@H]3[C@H](CCN3C(=O)[C@@H](NC(=O)[C@H](C)NC)C(C)(C)C)OCc3cn(nn3)[C@H](C(=O)NS(C)(=O)=O)CCCNC(=O)[C@H](Cc3ccc4ccccc4c3)NC(=O)[C@H]21)C(C)(C)C [Example 19] |
| 7.53 | 6.36 | CN[C@@H](C)C(=O)N[C@H](C(=O)N1C[C@@H]2C[C@H]1C(=O)N[C@@H](Cc1ccc3ccccc3c1)C(=O)N[C@H](C(=O)O)Cc1ccc(cc1)OC/C=C/CO[C@H]1C[C@@H](C(=O)N[C@@H](Cc3ccc4ccccc4c3)C(=O)N[C@H](C(=O)O)Cc3ccc(cc3)C(=O)N2)N(C(=O)[C@@H](NC(=O)[C@H](C)N(C)C(C)=O)C(C)(C)C)C1)C(C)(C)C [Example 73] |
| 8.32 | 8.14 | CN[C@@H](C)C(=O)N[C@H](C(=O)N[C@H]1C/C=C/CC[C@@H](C(=O)O)NC(=O)[C@H](Cc2ccc3ccccc3c2)NC(=O)[C@@H]2[C@@H](CCN2C(=O)[C@@H](NC(=O)[C@H](C)NC)C(C)(C)C)OCc2cn(nn2)CC[C@@H](C(=O)OC)NC(=O)[C@H](Cc2ccc3ccccc3c2)NC1=O)C(C)(C)C [Example 20] |
| 8.41 | 9.05 | CN[C@@H](C)C(=O)N[C@H](C(=O)N1C[C@H]2C/C=C/COc3ccc(cc3)C[C@@H](C(=O)NS(C)(=O)=O)NC(=O)[C@H](Cc3ccc4ccccc4c3)NC(=O)[C@@H]3C[C@@H](CN3C(=O)[C@@H](NC(=O)[C@H](C)NC)C(C)(C)C)n3cc(nn3)COc3ccc(cc3)C[C@@H](C(=O)O)NC(=O)[C@H](Cc3ccc4ccccc4c3)NC(=O)[C@@H]1C2)C(C)(C)C [Example 26] |
| 8.77 | 9.30 | CN[C@@H](C)C(=O)N[C@H](C(=O)N1C[C@H]2CCCCOc3ccc(cc3)C[C@@H](c3nnn[nH]3)NC(=O)[C@H](Cc3ccc4ccccc4c3)NC(=O)[C@@H]3C[C@@H](CN3C(=O)[C@@H](NC(=O)[C@H](C)NC)C(C)(C)C)n3cc(nn3)COc3ccc(cc3)C[C@@H](C(=O)O)NC(=O)[C@H](Cc3ccc4ccccc4c3)NC(=O)[C@@H]1C2)C(C)(C)C [Example 90] |
| 7.04 | 8.11 | CN[C@@H](C)C(=O)N[C@H](C(=O)N1C[C@@H]2C[C@H]1C(=O)N[C@@H](Cc1ccc3ccccc3c1)C(=O)N[C@H](C(=O)NS(=O)(=O)C1CC1)Cc1ccc(cc1)OCc1cn(nn1)[C@H]1C[C@@H](C(=O)N[C@@H](Cc3ccc4ccccc4c3)C(=O)N[C@H](C(=O)O)Cc3ccc(cc3)OC/C=C/CO2)N(C(=O)[C@@H](NC(=O)[C@H](C)NC)C(C)(C)C)C1)C1CCCCC1 [Example 108] |
